Results from paper PMC10253817, “Design, Pharmacological Characterization, and Molecular Docking of Minimalist Peptidomimetic Antagonists of α4β1 Integrin” (International Journal of Molecular Sciences, 2023).

What was measured:
ERK1/2 = test: Western blot, FN-induced ERK1/2 phosphorylation in Jurkat E6.1 cells; assay type: cell-based; conditions: Jurkat E6.1 cells pre-treated with 10^−7, 10^−8, 10^−9 M, then FN (10 µg/mL) 30 min
Procedure: To this purpose, Jurkat E6.1 cells were pre-treated with different concentrations (10^−7, 10^−8, 10^−9 M) of the compounds and then exposed to FN (10 µg/mL) for 30 min. […] In addition, the effects observed on intracellular signaling were concentration-dependent, except for compound 13 on AKT activation.
Western blot analysis was performed as previously described, with the following modifications. […] For integrin antagonists, JurkatE6.1 cells were subsequently incubated with FN (10 μg/mL) at 37 °C for 30 min. At the end of the incubation period, Jurkat E6.1 cells were lysed on ice using T-PER® (Tissue Protein Extraction Reagent, Life Technologies Italia, Milan, Italy), supplemented with a phosphatase inhibitor cocktail. Protein extracts were quantified using a BCA Protein Assay (Pierce, Rockford, IL, USA). The proteins from the cytoplasmatic extract were denatured at 95 °C for 3 min, then equal amounts of protein samples (30–50 μg) were loaded and separated via 12% SDS-PAGE. Proteins were transferred onto a nitrocellulose membrane (Biorad, Hercules, CA, USA), which was blocked with 5% nonfat milk in a Tris-buffered saline (10 mM Tris-HCl, pH 8, containing 150 mM NaCl) containing 0.1% Tween 20 for 1 h at room temperature. Membranes were stained overnight at 4 °C with anti-actin antibody (1:5000, Merck Life Science, Milan, Italy) or with anti-phospho-ERK1/2, anti-total ERK1/2, anti-phospho-AKT, anti-total-AKT, or anti-phospho-JNK antibodies (1:1000; Cell Signaling Technology, Danvers, MA, USA). The membranes were incubated with anti-rabbit peroxidase-conjugated secondary antibodies at a dilution of 1:8000. Blots were developed with a SuperSignal West Pico chemiluminescent substrate. Protocols for digital image acquisition and analysis have previously been described.

α5β1 integrin = target: T1, α5β1 integrin (Homo sapiens, UniProt P05556+P08648); test: α5β1 integrin-mediated K562 cell adhesion to FN; assay type: cell-based; conditions: K562 cell adhesion to FN (10 μg/mL)
T1 construct: K562 cells, mainly expressing α5β1, which shares a β1 subunit with the heterodimer α4β1; host or cells: K562 (PMA-treated)
T1 sequence (P08648 42-894 limits assumed): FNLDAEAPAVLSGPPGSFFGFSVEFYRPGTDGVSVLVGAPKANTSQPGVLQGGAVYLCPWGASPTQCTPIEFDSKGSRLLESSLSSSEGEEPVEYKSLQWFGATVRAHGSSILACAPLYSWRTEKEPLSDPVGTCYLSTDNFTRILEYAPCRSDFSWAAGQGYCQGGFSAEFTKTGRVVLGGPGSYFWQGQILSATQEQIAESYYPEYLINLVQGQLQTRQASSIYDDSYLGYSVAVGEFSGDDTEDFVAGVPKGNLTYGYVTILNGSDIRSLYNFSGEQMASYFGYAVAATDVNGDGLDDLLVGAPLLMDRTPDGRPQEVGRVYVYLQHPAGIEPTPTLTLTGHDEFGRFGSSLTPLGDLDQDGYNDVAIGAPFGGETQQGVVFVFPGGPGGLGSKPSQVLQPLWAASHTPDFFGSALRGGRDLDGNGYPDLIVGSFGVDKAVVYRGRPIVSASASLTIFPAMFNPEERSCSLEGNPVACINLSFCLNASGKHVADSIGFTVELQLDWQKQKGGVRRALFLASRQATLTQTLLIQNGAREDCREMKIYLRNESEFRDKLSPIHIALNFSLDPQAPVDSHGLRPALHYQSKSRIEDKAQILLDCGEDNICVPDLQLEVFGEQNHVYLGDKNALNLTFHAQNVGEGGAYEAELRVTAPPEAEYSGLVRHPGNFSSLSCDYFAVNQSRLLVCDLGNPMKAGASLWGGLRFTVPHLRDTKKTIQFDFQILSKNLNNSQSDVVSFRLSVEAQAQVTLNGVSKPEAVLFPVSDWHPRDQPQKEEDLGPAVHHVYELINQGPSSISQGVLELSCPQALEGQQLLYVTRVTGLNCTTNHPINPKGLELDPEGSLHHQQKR
T1 sequence (P08648 895-1049 partner limits assumed): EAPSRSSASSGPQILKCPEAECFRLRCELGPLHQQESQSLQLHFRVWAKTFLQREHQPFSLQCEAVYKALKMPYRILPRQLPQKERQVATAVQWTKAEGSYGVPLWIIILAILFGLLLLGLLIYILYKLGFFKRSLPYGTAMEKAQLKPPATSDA
T1 sequence (P05556 21-798): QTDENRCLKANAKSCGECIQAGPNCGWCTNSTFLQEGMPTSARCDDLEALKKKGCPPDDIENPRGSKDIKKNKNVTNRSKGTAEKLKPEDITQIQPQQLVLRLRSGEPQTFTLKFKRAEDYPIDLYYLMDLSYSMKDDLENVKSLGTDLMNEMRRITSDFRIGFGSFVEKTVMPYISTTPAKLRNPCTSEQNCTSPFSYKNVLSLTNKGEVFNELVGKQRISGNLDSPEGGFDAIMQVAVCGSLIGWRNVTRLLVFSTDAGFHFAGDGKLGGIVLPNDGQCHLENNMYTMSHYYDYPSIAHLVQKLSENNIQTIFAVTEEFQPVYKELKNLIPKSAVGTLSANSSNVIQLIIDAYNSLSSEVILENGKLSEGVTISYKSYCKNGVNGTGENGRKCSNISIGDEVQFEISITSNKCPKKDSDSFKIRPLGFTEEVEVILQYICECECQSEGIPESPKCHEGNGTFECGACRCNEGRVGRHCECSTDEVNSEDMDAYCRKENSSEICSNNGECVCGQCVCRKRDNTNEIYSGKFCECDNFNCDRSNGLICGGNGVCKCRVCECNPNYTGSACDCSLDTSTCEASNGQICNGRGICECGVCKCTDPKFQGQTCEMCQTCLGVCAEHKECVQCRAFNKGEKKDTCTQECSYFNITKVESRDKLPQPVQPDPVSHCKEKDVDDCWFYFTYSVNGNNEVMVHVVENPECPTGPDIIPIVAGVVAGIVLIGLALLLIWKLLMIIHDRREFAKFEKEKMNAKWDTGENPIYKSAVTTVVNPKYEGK
Procedure: To this purpose, the ability of the best peptidomimetics to modulate cell adhesion mediated by integrins other than α4β1 was evaluated in HL60 cells, mainly expressing the leukocyte integrin αMβ2, and on K562 cells, mainly expressing α5β1, which shares a β1 subunit with the heterodimer α4β1. […] In contrast, 13 was a moderate promoter of cell adhesion mediated by αMβ2 integrin, behaving as an agonist. Regarding α5β1 integrin, none of the peptidomimetics employed were able to modulate K562 cell adhesion, thus being shown to be completely ineffective toward α5β1 integrin. The reference compound DS-70 was ineffective toward both αMβ2 and α5β1 integrins under the same experimental conditions (Table 3).
For adhesion assays mediated by α5β1 integrin, K562 cells were pre-treated with PMA (64.85 nM, Merck Life Science, Milan, Italy) for 48 h to enhance α5β1 integrin expression. 96-well plates were coated via passive adsorption with FN (10 μg/mL) overnight at 4 °C; then, the following day, plates were blocked by adding 100 μL/well of a blocking solution (1% BSA in PBS) and incubated for 1 h at 37 °C. K562 cells were counted and preincubated with various concentrations (10^−10–10^−4 M) of the peptides or with the vehicle for 30 min at RT. Then, K562 cells were plated (50,000 cells/well) and incubated at RT for 1 h. The wells were then washed three times with 1% BSA in PBS, and 50 μL of hexosaminidase substrate was added and incubated at RT for 1 h. After the addition of 100 μL of stopping solution (50 mM glycine and 5 mM EDTA, pH 10.4), plates were read at 405 nm in an EnSpire Multimode Plate Reader.
In both types of adhesion assay, the number of adherent cells was determined via comparison with a standard curve made in the same plate. Experiments were carried out in quadruplicate and repeated at least three times. Data analysis and EC50 or IC50 values were calculated using GraphPad Prism 9.5.1 (GraphPad Software, San Diego, CA, USA).
Cell culture. Jurkat E6.1 (expressing both α4β1 and αLβ2 integrin), K562 (expressing α5β1 integrin) and HL60 (expressing α Mβ2 integrin) cell lines were purchased from ATCC (Rockville, MD, USA); these cells were routinely cultured in RPMI-1640 (Life Technologies) supplemented with 1% glutamine and 10% fetal bovine serum (FBS). Cells were grown at 37 °C under 5% CO 2 humidified atmosphere. 40 h before the adhesion assays, K562 and HL60 cells were treated with 25 nM or 40 nM phorbol 12 -myristate 13-acetate (PMA; Sigma-Aldrich), respectively, to induced cell differentiation and to increased α5β1 or αMβ2 integrin expression on cell surface (Baiula et al., 2016).
Cell adhesion assays . Concentration-response curves, obtained from cell adhesion assays performed in […]
Figure S1. […]

α4β1 integrin = target: T2, α4β1 integrin (Homo sapiens, UniProt P05556+P13612); test: LDV-FITC competitive binding on intact Jurkat E6.1 cells; conditions: intact Jurkat E6.1 cells vs. LDV-FITC; mean ± SD
T2 construct: Jurkat E6.1 cell line, which endogenously expresses α4β1 integrin; host or cells: Jurkat E6.1
T2 sequence (P13612 34-1032): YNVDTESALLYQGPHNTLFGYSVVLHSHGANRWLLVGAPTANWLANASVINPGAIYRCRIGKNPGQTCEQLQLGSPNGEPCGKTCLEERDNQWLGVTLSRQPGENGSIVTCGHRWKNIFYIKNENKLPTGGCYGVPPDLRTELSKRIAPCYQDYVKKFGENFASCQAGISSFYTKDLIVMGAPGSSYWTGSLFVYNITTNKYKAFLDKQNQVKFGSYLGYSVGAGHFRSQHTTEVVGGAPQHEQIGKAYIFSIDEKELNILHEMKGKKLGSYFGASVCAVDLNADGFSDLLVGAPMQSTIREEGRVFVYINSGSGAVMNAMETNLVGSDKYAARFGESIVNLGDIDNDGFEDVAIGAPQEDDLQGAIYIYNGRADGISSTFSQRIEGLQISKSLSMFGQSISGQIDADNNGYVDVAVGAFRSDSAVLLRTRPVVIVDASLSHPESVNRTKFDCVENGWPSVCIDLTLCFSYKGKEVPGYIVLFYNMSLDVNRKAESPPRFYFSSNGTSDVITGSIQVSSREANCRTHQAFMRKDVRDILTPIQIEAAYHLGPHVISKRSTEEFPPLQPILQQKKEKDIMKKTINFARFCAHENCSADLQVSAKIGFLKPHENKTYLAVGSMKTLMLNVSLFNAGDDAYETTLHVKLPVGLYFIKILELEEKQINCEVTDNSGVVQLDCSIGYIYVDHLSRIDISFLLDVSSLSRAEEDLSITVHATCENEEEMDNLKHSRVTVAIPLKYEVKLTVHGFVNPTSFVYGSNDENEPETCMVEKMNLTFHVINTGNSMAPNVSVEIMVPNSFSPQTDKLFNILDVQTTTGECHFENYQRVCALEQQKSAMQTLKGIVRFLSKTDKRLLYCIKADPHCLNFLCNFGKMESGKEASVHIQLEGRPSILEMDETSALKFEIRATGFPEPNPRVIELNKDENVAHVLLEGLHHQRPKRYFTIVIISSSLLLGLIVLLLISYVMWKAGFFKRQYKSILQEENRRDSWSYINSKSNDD
T2 sequence (P05556 21-798): as the sequence (P05556 21-798) above
Procedure: The assays were performed as previously described with the following modifications. Jurkat E6.1 cells were resuspended (50,000 cells/sample) in 0.1% BSA in a HEPES buffer (NaCl 110 mM; KCl 10 mM; Glucose 10 mM; MgCl2 1 mM; CaCl2 1.5 mM; HEPES 30 mM; pH 7.4) and pre-incubated with different concentrations (10^−11–10^−5 M) of compounds for 20–30 min at RT. Then, LDV-FITC (5 µM) was added to the cells, and they were incubated in the dark for an additional 30 min at RT. At the end of the incubation with LDV-FITC, cells were washed with 0.1% BSA in a HEPES buffer. The FITC fluorescence intensity was measured using an EnSpire Multimode Plate Reader (PerkinElmer, Waltham, MA, USA). The data were plotted as LDV-FITC specific bindings versus the concentration of the competitor, and the data were fitted to a one-site competition equation; the equilibrium dissociation constant Ki was calculated from the IC50 using the Cheng–Prusoff equation.

Compound	FN-induced ERK1/2 phosphorylation (ERK1/2)	IC50 (α5β1 integrin) [nM]	Ki (α4β1 integrin) [nM]
CC(=O)N[C@@H](CNC(=O)Cc1ccc(NC(=O)Nc2ccccc2C)cc1)C(=O)NCC(=O)O [compound 3]	significantly prevented	> 5000	1.3 ± 0.7
CCCNC(=O)[C@@H](CC(=O)NCC(=O)O)NC(=O)Cc1ccc(NC(=O)Nc2ccccc2C)cc1 [compound 8]	significantly prevented	> 5000	1.9 ± 0.8
Cc1ccccc1NC(=O)Nc1ccc(CNC(=O)C[C@@H](C)NC(=O)CC(=O)O)cc1 [compound 13]	significantly prevented	> 5000	16.7 ± 5.2
